Source: patent publication US6967205B1, “Compounds with antibacterial and antiparasitic properties” (New Pharma Research Sweden AB, priority 1999, dated 2005)
In brackets after ≈: the same amount, converted by molar mass.

Tests used:
gram-positive bacteria = test: Antibacterial activity against gram-positive bacteria, overall comparison with enrofloxacin; assay type: cell-based; details: seven gram-positive strains of Table 6
Experimental: (§1) The antibacterial activity of the present compounds was investigated by in vitro evaluation of their M.I.C. (Minimum Inhibitory Concentration) values. The evaluation was conducted in complete accordance with the “Broth dilution method”, as outlined by the U.S. National Committee for Clinical Laboratory Standards “NCCLS 1988”.
(§2) Solutions of the present compounds were prepared by dissolving 0.01 g of a test compound in either 10% KOH (aq) or a 10% KOH/DMF mixture, after which sterile, distilled H2O was added up to a total volume of 10 ml, thereby yielding a test compound concentration of 1 000 μg/ml.
In this evaluation, the antibacterial activity of the present compounds and enrofloxacin as reference compound was tested against seven strains of gram-positive bacteria, namely Bacillus subtilus (ATCC 6633), Bacillus cereus, Streptococcus faecium, Micrococcus Luteus (ATCC 9341), Staph. aureus (ATCC 29737), Staph. epidermidis (ATCC 12228) and Staphylococcus (ATCC 6538).

[1] = test system: Micrococcus Luteus (ATCC 9341); test: M.I.C. by broth dilution method (NCCLS 1988), gram-positive bacteria; assay type: cell-based; details: ATCC9341, in vitro broth dilution, read-out: M.I.C. values Microc. Luteus
Procedure, shortened: (§3)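 MIC values were obtained by broth dilution following NCCLS 1988 against gram-positive strains including Bacillus subtilus ATCC 6633, Streptococcus faecium and Staphylococcus ATCC 6538. Enrofloxacin served as reference. Compound stocks were 1 000 μg/ml in aqueous KOH or KOH/DMF.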

Bacillus cereus = test: as above; assay type: cell-based; details: in vitro broth dilution
Procedure, shortened: as §3

[2] = test system: Bacillus subtilus (ATCC 6633); test: as above; assay type: cell-based; details: ATCC6633, in vitro broth dilution
Procedure, shortened: as §3

[3] = test system: Staph. epidermidis (ATCC 12228); test: as above; assay type: cell-based; details: Staphylococcus epidermidis, ATCC12228, in vitro broth dilution
Procedure, shortened: as §3

[4] = test system: Staph. aureus (ATCC 29737); test: as above; assay type: cell-based; details: Staphylococcus aureus, ATCC29737, in vitro broth dilution
Procedure, shortened: as §3

[5] = test system: Staphylococcus (ATCC 6538); test: as above; assay type: cell-based; details: ATCC6538, in vitro broth dilution, read-out: M.I.C. values Staph. (ATCC 6538)
Procedure, shortened: as §3

Streptococcus faecium = test: as above; assay type: cell-based; details: Enterococcus faecium, in vitro broth dilution, read-out: M.I.C. values Streptoc. faecium
Procedure, shortened: as §3

[6] = test system: E. mitis, E. hagani, E. praecox, E. acervulina, E. maxima, E. necatrix, E. tenella and E. brunetti; test: Prophylactic anticoccidial effect in chickens of Arbor Aker breed (8 Eimeria strains); assay type: in vivo; details: 100 ppm in feed from day 3, infected day 7
Experimental: JA 12, JA 39 and JA 42 was also evaluated in chickens of Arbor Aker breed. These trials were conducted by using basically the same test protocol as that used for the chickens of Habbared X breed, albeit with the following modifications:
• i) On day 3 after hatch, the tested groups of chickens received feed containing 100 ppm of JA 12, JA 39, JA 42 or Coxistac (60 ppm); • ii) On day 7 after hatch, the chickens were infected orally by oocysts containing a mixture of 8 mature sporulated strains, namely E. mitis, E. hagani, E. praecox, E. acervulina, E. maxima, E. necatrix, E. tenella and E. brunetti.

[7] = test system: Eimeria acervulina, E. maxima, E. necatrix, E. tenella and E. brunetti; test: Prophylactic anticoccidial activity in chickens of Habbared X breed (5 Eimeria strains); assay type: in vivo; details: for anticoccidial effect (in words): chickens of Habbared X breed, 100 ppm in feed; for Average number of Eimeria spp. oocysts/g faeces, day after hatch 14: day 14 after hatch; for Average number of Eimeria spp. oocysts/g faeces, day after hatch 14 / Average number of Eimeria spp. oocysts/g faeces, day after hatch 15 / Average number of Eimeria spp. oocysts/g faeces, day after hatch 16 / Average number of Eimeria spp. oocysts/g faeces, day after hatch 17 / Average number of Eimeria spp. oocysts/g faeces, day after hatch 18 / Average number of Eimeria spp. oocysts/g faeces, day after hatch 19 / Average number of Eimeria spp. oocysts/g faeces, day after hatch 21 / Mean body weight / Mean amount of feed consumed / Average number of Eimeria spp. oocysts/g faeces, Total: drug in feed (JA 39, JA 42 100 ppm; Coxistac 60 ppm); for Average number of Eimeria spp. oocysts/g faeces, day after hatch 14 / Average number of Eimeria spp. oocysts/g faeces, day after hatch 15 / Average number of Eimeria spp. oocysts/g faeces, day after hatch 16 / Average number of Eimeria spp. oocysts/g faeces, day after hatch 17 / Average number of Eimeria spp. oocysts/g faeces, day after hatch 18 / Average number of Eimeria spp. oocysts/g faeces, day after hatch 19 / Average number of Eimeria spp. oocysts/g faeces, day after hatch 21: infected day 10; for Average number of Eimeria spp. oocysts/g faeces, day after hatch 15: day 15 after hatch; for Average number of Eimeria spp. oocysts/g faeces, day after hatch 16: day 16 after hatch; for Average number of Eimeria spp. oocysts/g faeces, day after hatch 17: day 17 after hatch; for Average number of Eimeria spp. oocysts/g faeces, day after hatch 18: day 18 after hatch; for Average number of Eimeria spp. oocysts/g faeces, day after hatch 19: day 19 after hatch; for Average number of Eimeria spp. oocysts/g faeces, day after hatch 21: day 21 after hatch; for Mean body weight: final weight; for Mean body weight / Mean amount of feed consumed: infected chickens; for Mean amount of feed consumed: mean total feed per bird; for Average number of Eimeria spp. oocysts/g faeces, Total: total of days 14-21 after hatch
Experimental: The anticoccidial activity of the present compounds as prophylactic agents was evaluated in vivo on […] one day old (1 day after hatch) chickens of Habbared X breed. The chickens were divided into four groups of 20 birds each, and each group was located in a separate pen (1 m×1 m). The chickens were then fed with unmedicated food up to day 7 after hatch. Fresh water was supplied ad libitum .
On day 8 after hatch, the four groups were fed as follows (1 ppm=1 mg drug/kg feed): • Group #1: feed containing JA 39 (100 ppm); • Group #2: feed containing JA 42 (100 ppm); • Group #3: feed containing Coxistac (60 ppm), a known anticoccidial agent (see U.S. Pat. No. 3,857,948);
Group #4: feed containing no drug (control group).
The chickens were fed as above on day 8 and 9 after hatch. On day 10 after hatch, each chicken was infected orally by 6 000-7 000 oocysts containing a mixture of 5 mature sporulated strains, namely Eimeria acervulina, E. maxima, E. necatrix, E. tenella and E. brunetti. The groups #1-3 received drug as above from day 10 to 21 after hatch.
From day 14 to 21 after hatch, fresh fecal droplets were collected and examined daily. The average number of oocysts/g faeces was then calculated in accordance with the so-called Mc-Master technique (Soulsby, E. J., Helminths, Arthropods & Protozoa of domesticated animals, p. 789, 6th Ed., Williams & Wilkins Co. Baltimore (USA), Tindall & Cassell Ltd., London, 1968). The final weight of and mean total amount of feed consumed by each bird were also examined, and the results are summarized in Table 8 hereinbelow.

[8] = test system: gram-negative bacteria (E. coli, KL. Pnemonia, Bordetella bronchiseptic, Salmonella typhi, Salmonella spp., Proteus spp., Pasterulla Duck, Pasterulla Camel); test: M.I.C. by broth dilution method, gram-negative bacteria; assay type: cell-based; details: eleven gram-negative strains
Experimental: as §1, §2
In the same manner as above, the M.I.C. values of the present compounds JA 3, JA 5, JA 12, JA 42, JA 73 and enrofloxacin as reference compound were investigated also on gram-negative bacteria. The gram-negative bacteria used were E. coli (ATCC 25922), E. Coli (ATCC 8739), E. Coli (ATCC 10536), E. Coli Pathogenic, KL. Pnemonia (ATCC 10031), Bordetella bronchiseptic (ATCC 4617), Salmonella typhi, Salmonella spp., Proteus spp., Pasterulla Duck and Pasterulla Camel.

M. gallisepticum = test: M.I.C. against Mycoplasma in microtitre plates (Tanner and Wu); assay type: cell-based; details: Mycoplasmoides gallisepticum; in vitro, microtitre plates
Experimental: The M.I.C. values of the compounds JA 1, JA 3, JA 5, JA 12, JA 42 and JA 43 were determined in vitro against M. gallisepticum. Enrofloxacin, tylosin and oxytetracyclin were used as reference compounds. The tested compounds were all stored and applied as solutions in distilled water. The M.I.C. evaluation was performed in microtitre plates, and the methodology employed was basically that of Tanner and Wu (Avian Disease, 36:714-717 (1992)).

Row | SMILES | antibacterial activity against gram-positive bacteria compared to that of enrofloxacin (gram-positive bacteria) | MIC [1] [µg/mL] | MIC (Bacillus cereus) [µg/mL] | MIC [2] [µg/mL] | MIC [3] [µg/mL] | MIC [4] [µg/mL] | MIC [5] [µg/mL] | MIC (Streptococcus faecium) [µg/mL] | prophylactic anticoccidial effect (in words) [6] | anticoccidial effect (in words) [7] | Average number of Eimeria spp. oocysts/g faeces, day after hatch 14 [7] [oocysts/g faeces] | Average number of Eimeria spp. oocysts/g faeces, day after hatch 15 [7] [oocysts/g faeces] | Average number of Eimeria spp. oocysts/g faeces, day after hatch 16 [7] [oocysts/g faeces] | Average number of Eimeria spp. oocysts/g faeces, day after hatch 17 [7] [oocysts/g faeces] | Average number of Eimeria spp. oocysts/g faeces, day after hatch 18 [7] [oocysts/g faeces] | Average number of Eimeria spp. oocysts/g faeces, day after hatch 19 [7] [oocysts/g faeces] | Average number of Eimeria spp. oocysts/g faeces, day after hatch 21 [7] [oocysts/g faeces] | Mean body weight [7] [g] | Mean amount of feed consumed [7] [g] | Average number of Eimeria spp. oocysts/g faeces, Total [7] [oocysts/g faeces] | also measured
1 | COc1ccc(S(=O)(=O)N2CCN(c3cc4c(cc3F)c(=O)c(C(=O)O)cn4C3CC3)CC2)cc1 [JA 4, 1-cyclopropyl-6-fluoro-7-{4-[(4-methoxyphenyl)sulfonyl]-1-piperazinyl}-4-oxo-1,4-dihydro-3-quinolinecarboxylic acid] | clearly superior | 0.25 (≈ 0.498 µM) | 0.01 (≈ 0.0199 µM) | 0.01 (≈ 0.0199 µM) | 0.03 (≈ 0.0598 µM) | 0.06 (≈ 0.12 µM) | 0.01 (≈ 0.0199 µM) | 0.06 (≈ 0.12 µM) | – | – | – | – | – | – | – | – | – | – | – | – | –
2 | O=C(O)c1cn(C2CC2)c2cc(N3CCN(c4cncc(Cl)n4)CC3)c(F)cc2c1=O [JA 39, 7-[4-(6-chloro-2-pyrazinyl)-1-piperazinyl]-1-cyclopropyl-6-fluoro-4-oxo-1,4-dihydro-3-quinolinecarboxylic acid] | clearly superior | 1 (≈ 2.25 µM) | 0.01 (≈ 0.0225 µM) | 0.06 (≈ 0.135 µM) | 0.01 (≈ 0.0225 µM) | 0.12 (≈ 0.27 µM) | 0.03 (≈ 0.0676 µM) | 0.25 (≈ 0.563 µM) | essentially the same as those reported for the trials with the chickens of Habbared X breed | excellent anticoccidial effect | 0.0 | 4000 | 5000 | 3000 | 0.0 | 0.0 | 0.0 | 68.2 | 81 | 12000 | –
3 | O=C(O)c1cn(C2CC2)c2cc(N3CCN(S(=O)(=O)C(F)(F)F)CC3)c(F)cc2c1=O [JA 12, 1-cyclopropyl-6-fluoro-4-oxo-7-{4-[(trifluoromethyl)sulfonyl]-1-piperazinyl}-1,4-dihydro-3-quinolinecarboxylic acid] | – | 0.5 (≈ 1.08 µM) | 0.06 (≈ 0.129 µM) | 0.12 (≈ 0.259 µM) | 0.12 (≈ 0.259 µM) | 0.12 (≈ 0.259 µM) | 0.03 (≈ 0.0647 µM) | 1 (≈ 2.16 µM) | very similar to that of JA 39 | – | – | – | – | – | – | – | – | – | – | – | antibacterial activity against gram-negative bacteria compared to that of enrofloxacin [8]: roughly equal to that of enrofloxacin; MIC (M. gallisepticum): 0.12 µg/mL (≈ 0.259 µM)
4 | O=C(O)c1cn(C2CC2)c2cc(N3CCN(c4cccc(Cl)n4)CC3)c(F)cc2c1=O [JA 42, 7-[4-(6-chloro-2-pyridinyl)-1-piperazinyl]-1-cyclopropyl-6-fluoro-4-oxo-1,4-dihydro-3-quinolinecarboxylic acid] | – | 1 (≈ 2.26 µM) | 0.06 (≈ 0.135 µM) | 0.01 (≈ 0.0226 µM) | 0.008 (≈ 0.0181 µM) | 0.03 (≈ 0.0677 µM) | 0.06 (≈ 0.135 µM) | 0.25 (≈ 0.564 µM) | essentially the same as those reported for the trials with the chickens of Habbared X breed | excellent anticoccidial effect | 0.0 | 4000 | 6000 | 3000 | 0.0 | 0.0 | 0.0 | 73.7 | 91 | 13000 | antibacterial activity against gram-negative bacteria compared to that of enrofloxacin [8]: roughly equal to that of enrofloxacin; MIC (M. gallisepticum): 0.25 µg/mL (≈ 0.564 µM)
